Data published in US20250263370A1 (Tay Therapeutics Limited, priority 2022, published 2025).
≈ marks a conversion by molar mass, not a printed value.

Key:
BRD4 BD2 = BRD4 BD2 (Homo sapiens (Human), UniProt O60885); assay: NanoBRET bromodomain assay, NanoLuc-BRD4-BD2 fusion in HEK293 cells; details: for IC50: BRD4 BD2 (IC50), NanoBRET, HEK293 cells, top concentration 10 μM; for Fold selectivity: IC50 for BRD4 BD1 divided by IC50 for BRD4 BD2, qualitative if an IC50 is at the upper limit;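 for all read-outs here: tracer displacement BRET read in transfected cells after 2 h compound exposure at 37 °C, signal in milliBRET units corrected against no-tracer background wells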
[1] = Sprague-Dawley rat pharmacokinetics, IV and PO cassette dosing; type: in vivo; details: for IV T1/2 / half-life: IV 1 mg/kg; for IV T1/2 / PO F: Method 1; for PO F: PO 5 mg/kg; for half-life: male, Sprague-Dawley, rat, plasma, iv, 1 mg/kg, Method 1, read-out: IV T1/2 (converted)
Experimental: Compounds were formulated in 5% DMSO, 40% PEG-400, 55% Milli-Q water at a concentration of 0.2 mg/mL for IV and at 0.5 mg/mL for PO. Two male Sprague-Dawley rats per arm were dosed with up to 5 compounds in cassette mode, which each compound being dosed at 1 mg/kg IV and 5 mg/kg PO. Blood was sampled at various timepoints and plasma isolated. 50 μL of plasma with 5 μL of blank Sprague-Dawley rat plasma were added to 200 μL of acetonitrile containing IS mixture. The samples were vortexed for 30 s. After centrifugation at 4 degrees Celsius, 3900 rpm for 15 min, the supernatant was diluted 3 times with water. 20 μL of diluted supernatant was injected into the LC/MS/MS system for quantitative analysis and concentration of analyte determined by comparison with matrix matched standard curve. WinNonlin (Phoenix™, version 8.3) or other similar software may be used for pharmacokinetic calculations.

BRD4 BD1 = BRD4 BD1 (Homo sapiens (Human), UniProt O60885); assay: NanoBRET bromodomain assay, NanoLuc-BRD4-BD1 fusion in HEK293 cells; type: cell-based; details: top concentration 10 μM
[2] = Plasma stability assay, rat plasma; type: in vitro ADME; details: Method 2 (10 μM)
Experimental: From stock solution of compound in 10 mM DMSO, a working solution of 1 mM is prepared by diluting the compound in DMSO. To 398 μL of plasma pre-warmed at 37° C. for 15 minutes), 2 μL of working solution of compound is added, resulting in a final concentration of 5 μM (0.5% DMSO) for the compound. The sample is then incubated at 37° C. Aliquot is withdrawn at specified time-points (0, 15, 30, 60 and 120 mins). The reaction is stopped by addition of 450 μL cold acetonitrile containing internal standard (IS). […] Aliquots of the supernatant is analysed using LC-MS/MS. The percent remaining of the compound at each time point is calculated with respect to the control sample (0 min time-point).
A working solution of compound (500 μM) is prepared in DMSO (100%). To 735 μL of plasma, 15 μL of working solution of compound is added—resulting in a final concentration of 10 μM (2% DMSO) for the compound. The sample is then incubated at 37° C. Aliquot is withdrawn at time-points—0, 15, 30, 60, 90 and 120 mins. The reaction is stopped by using chilled acetonitrile containing internal standard (IS). The samples are centrifuged and the supernatants analyzed using LC-MS/MS. The percent remaining of the compound at each time point is calculated with respect to the control sample (0 min time-point).

[3] = Thermodynamic solubility in FaSSIF pH 6.5 buffer; type: physicochemical; details: for solubility thermodynamic / solubility thermodynamic at 24 h: FaSSIF buffer, 25 °C, pH 6.5, fassif, thermodynamic from solid; for solubility thermodynamic: Method 2 (LCMS, 25° C.); for solubility thermodynamic at 24 h / Thermodynamic Solubility FaSSIF pH 6.5 (μM): Method 1 (UV-vis, 25° C., 24 hrs)
Experimental: FaSSIF v2 buffer is freshly prepared prior to use according to the suppliers' instructions and the pH adjusted to 6.5 using 1 M NaOH or 1 M HCl as required. From 1 mM working solution of test compound in DMSO, the λmax of the test compound is determined by scanning from 200 nm to 700 nm, in 1 nm steps with an EPOCH UV/Visible spectrophotometer (Biotek Instruments Inc.). A 12-point standard curve of compound concentration versus absorption at λmax is generated via two-fold serial dilutions of the 1 mM working solution with DMSO. Approximately 1 mg of test compound is accurately weighed into an Eppendorf tube and the appropriate volume of FaSSIF buffer is added to make a nominal concentration of 1 mg/mL. The tube is incubated on a rotator at 20 rpm, 25° C. for 24 hrs. Samples are then filtered using 0.45 μm filters (Sartorious, CAT #1776C) and the filtrate subjected to UV-vis spectroscopy analysis. The absorption at λmax is compared to the standard curve to determine the concentration of compound in solution after 24 hours.
FaSSIF buffer was prepared according to the suppliers' instructions and the pH adjusted to 6.5 using 1 M NaOH or 1 M HCl as required. […] A stir stick was added to each vial and vials sealed with a moulded PTDE/SIL 96-well plate cover. The plate was shaken at 25° C. at 1,100 rpm using an Eppendorf Thermomixer Comfort plate shaker. The plates were filtered using a vacuum manifold and diluted with a mixture of H2O and acetonitrile containing internal standard. The concentration of the test compound in the filtrate was determined by LCMS analysis with reference to the internal standards to determine the solubility in the buffer.

[4] = Intrinsic clearance in liver microsomes, rat; type: in vitro ADME; details: Method 1; for half-life at 1 μM: rat, liver microsomes, pH 7.4, rat liver microsomes, read-out: Half-Life (T1/2) (min), Rat; for Half-Life (T1/2) (min), Rat: rat liver microsomes
Experimental: From stock solution of compound on 10 mM DMSO, a working solution of 0.1 mM is prepared by diluting the compound in DMSO. 6.25 μL of a 20 mg/mL solution of microsomes in PBS pH 7.4 buffer is added to 216.25 μL PBS pH 7.4 buffer (final microsome concentration—0.5 mg/mL). 25 μL of 10 mM solution of NADPH in PBS pH 7.4 buffer is added to the incubations (final NADPH concentration—1 mM). The mixture is pre-warmed to 37° C. for 10 minutes. 2.5 μL of test compound working solution is added (final compound concentration—1 μM with 1% DMSO). Aliquots of 30 μL are taken from the reaction solution at 0.5, 5, 15, 30 and 60 minutes. The reaction was stopped by the addition of 5 volumes of cold acetonitrile with IS (100 nM alprazolam, 200 nM caffeine and 100 nM tolbutamide). Samples were centrifuged at 3, 220 g for 40 minutes. Aliquots of 100 μL of the supernatant are mixed with 100 μL of ultra-pure H2O and used for LC-MS/MS analysis. The percent compound remaining at each time point is calculated with respect to that of the 0.5 min sample. The data are analysed to calculate half-life. Control experiments are run without NADPH and blank samples are prepared using DMSO without the test compound.
A 50 mM stock solution (in DMSO) is prepared for the compound. From the stock solution, a working solution of 0.5 mM is prepared by diluting the compound in DMSO. This concentration of working solution is prepared considering a final concentration of 1 uM with 0.1% DMSO. The compound (1 μL of working solution) is spiked in PBS with pH 7.4 ([…]) at a concentration of 1 μM. Subsequently, 110 μL of 10 mM NADPH is added (as a co-factor). The sample is incubated at 37° C. for 15 min. Following this, pre-warmed liver microsomes (27.5 μL; final protein conc. 0.5 mg/mL) are added. The samples are then incubated at 37° C. Aliquots of samples are withdrawn at 0, 5, 15, 30, 45 and 60 min. The reaction is stopped by using chilled acetonitrile containing internal standard. The samples are centrifuged, and the supernatants analysed by LC-MS/MS. The percent compound remaining at each time point is calculated with respect to that of the 0 min sample. The data are then analysed to calculate half-life and intrinsic clearance (CLint). Control experiments are run without NADPH and blank samples are prepared using DMSO without the test compound.

SMILES | IC50 (BRD4 BD2) [µM] | Fold selectivity (BRD4 BD2) | IV T1/2 [1] [min] | PO F [1] [%] | IC50 (BRD4 BD1) [µM] | Plasma Stability (% remaining at 120 minutes), Rat [2] [%] | solubility thermodynamic [3] [µM] | half-life at 1 μM [4] [min] | half-life [1] [min] | solubility thermodynamic at 24 h [3] [µM] | Half-Life (T1/2) (min), Rat [4] [min] | Thermodynamic Solubility FaSSIF pH 6.5 (μM) [3] [μM]
CNC(=O)c1[nH]c(C(=O)NC2CC2)cc1O[C@@H](C)c1ccccc1F [Example 59, (S)—N^5-cyclopropyl-3-(1-(2-fluorophenyl)ethoxy)-N^2-methyl-1H-pyrrole-2,5-dicarboxamide] | 0.05 to 0.2 | XX (Fold >50 and ≤200) | 66 | 70 | ≥ 10 | 50 | 635 (≈ 219 µg/mL) | > 60 |  |  |  | 
CNC(=O)c1[nH]c(C(=O)NC2CC2)cc1O[C@@H](C)c1ccc(Cl)cc1 [Example 62, (S)-3-(1-(4-chlorophenyl)ethoxy)-N^5-cyclopropyl-N^2-methyl-1H-pyrrole-2,5-dicarboxamide] | < 0.05 | XXX (Fold >200) |  | 8 | ≥ 10 | 82 | 320 (≈ 116 µg/mL) | > 60 | 30 |  |  | 
CNC(=O)c1[nH]c(C(=O)NC2CCC2)cc1OC(C)c1ccc(Cl)cn1 (single isomer, unassigned) [Example 33, 3-(1-(5-chloropyridin-2-yl)ethoxy)-N^5-cyclobutyl-N^2-methyl-1H-pyrrole-2,5-dicarboxamide] | 0.05 to 0.2 | XX (Fold >50 and ≤200) |  |  | ≥ 10 | 85 | 685 (≈ 258 µg/mL) | > 60 |  |  |  | 
CNC(=O)c1[nH]c(C(=O)N[C@H]2CC[C@H](OC)CC2)cc1OC(C)c1ccccc1 (single isomer, unassigned) [Example 99, N^5-(trans-4-methoxycyclohexyl)-N^2-methyl-3-(1-phenylethoxy)-1H-pyrrole-2,5-dicarboxamide] | 0.05 to 0.2 | XX (Fold >50 and ≤200) |  |  | ≥ 10 |  |  |  |  | 359 (≈ 143 µg/mL) | 39 | 
C#Cc1ccc(C(C)Oc2cc(C(=O)NCC)[nH]c2C(=O)NC)cc1 (single isomer, unassigned) [Example 70, N^5-ethyl-3-(1-(4-ethynylphenyl)ethoxy)-N^2-methyl-1H-pyrrole-2,5-dicarboxamide] | < 0.05 | XXX (Fold >200) |  | 44 | ≥ 10 | 92 | 365 (≈ 124 µg/mL) | 60 | 36 |  |  | 
CNC(=O)c1[nH]c(C(=O)N[C@H]2CC[C@H](O)CC2)cc1OC(C)c1ccccc1 (single isomer, unassigned) [Example 98, N^5-(trans-4-hydroxycyclohexyl)-N^2-methyl-3-(1-phenylethoxy)-1H-pyrrole-2,5-dicarboxamide] | > 10 | — (Fold ≥0 and ≤2) | 72 | 31 | ≥ 10 |  |  |  |  |  | >60 | 429

Further lines, results first:

IC50 (BRD4 BD2) [µM] | Fold selectivity (BRD4 BD2) | IV T1/2 [1] [min] | PO F [1] [%] | IC50 (BRD4 BD1) [µM] | Plasma Stability (% remaining at 120 minutes), Rat [2] [%] | solubility thermodynamic [3] [µM] | half-life at 1 μM [4] [min] | half-life [1] [min] | solubility thermodynamic at 24 h [3] [µM] | Half-Life (T1/2) (min), Rat [4] [min] | Thermodynamic Solubility FaSSIF pH 6.5 (μM) [3] [μM] | SMILES
> 10 | — (Fold ≥0 and ≤2) |  |  | ≥ 10 |  |  |  |  |  | 19 | 377 | CNC(=O)c1[nH]c(C(=O)N[C@H]2CC[C@H](OC)CC2)cc1OC(C)c1ccccc1 (single isomer, unassigned) [Example 100, N^5-(trans-4-methoxycyclohexyl)-N^2-methyl-3-(1-phenylethoxy)-1H-pyrrole-2,5-dicarboxamide]
> 10 | — (Fold ≥0 and ≤2) |  |  | ≥ 10 |  |  |  |  |  | 10 | 47 | CNC(=O)c1[nH]c(C(=O)NC2CCC(F)(F)CC2)cc1OC(C)c1ccccc1 (single isomer, unassigned) [Example 104, N^5-(4,4-difluorocyclohexyl)-N^2-methyl-3-(1-phenylethoxy)-1H-pyrrole-2,5-dicarboxamide]
0.05 to 0.2 | XX (Fold >50 and ≤200) |  |  | ≥ 10 |  |  | 19 |  | 57 (≈ 23.1 µg/mL) |  |  | CNC(=O)c1[nH]c(C(=O)NC2CCC(F)(F)CC2)cc1OC(C)c1ccccc1 (single isomer, unassigned) [Example 103, N^5-(4,4-difluorocyclohexyl)-N^2-methyl-3-(1-phenylethoxy)-1H-pyrrole-2,5-dicarboxamide]
> 10 | — (Fold ≥0 and ≤2) |  | 13 | ≥ 10 |  |  | 41 | 162 | 188 (≈ 64.2 µg/mL) |  |  | CNC(=O)c1[nH]c(C(=O)NC2CCC2)cc1OC(C)c1ccccc1 (single isomer, unassigned) [Example 102, N^5-cyclobutyl-N^2-methyl-3-(1-phenylethoxy)-1H-pyrrole-2,5-dicarboxamide]
